2 compounds from paper PMC5552854, “ER/K linked GPCR-G protein fusions systematically modulate second messenger response in cells” (Scientific Reports, 2017) can be followed below.

For experiment [1], the target named is β2-AR control (–) sensor. As to the kind of experiment: [3H]-DHA saturation binding (KD). Also on record: species or system human. The conditions noted are these: control sensor membranes. As for the experimental part: (§1) Radio-ligand assays followed the previously published protocol. […]; PerkinElmer) for 90 min at room temperature in Tris-Buffered-Saline (TBS) pH 7.4. Samples were transferred to GF/C membranes pre-treated with 0.3% PEI solution in TBS, washed extensively with cold TBS, and dried over night at room temperature. […] Each experiment was done at least twice with different membrane preparations, with three separate samples prepared per condition, per experiment.

Experiment [2] concerns the target β2-AR-Gs sensor. As to the kind of experiment: [3H]-DHA saturation binding (KD). On the set-up: species or system human. To be noted: β2-AR-Gs sensor membranes. As for the experimental part: as §1
For experiment [3], the system named is α2-AR-Gi fusion. To be noted: 100 μM / 1 mM (Fig. 3 legend), live cells.
Protocol: Change in FRET (ΔFRET) was calculated as FRETligand – FRETbuffer.
For experiment [4], the system named is α2-AR-Gi fusion. The conditions noted are these: 100 μM, 1 μM forskolin; α2-AR-Gi compared to α2-AR alone (–).

Usually Kd stands for the concentration at which binding is half-saturated. A lower Kd goes with higher affinity.

As for `CCCc1ccccc1OCC(O)CNC(C)C` (stereo not shown) [[^3H]-DHA, [^3H]-dihydroalprenolol], the Kd in experiment [1] and in experiment [2] was about 0.2 nM in each case.

`CNC[C@H](O)c1ccc(O)c(O)c1` [epinephrine] displayed a ΔFRET in experiment [3] of 0.01 ± 0.002. Further, the “loss in cAMP signaling (inhibition of forskolin induced cAMP)” value in experiment [4] is reported as “greater loss in cAMP signaling”.
